Results on three compounds are retold here after patent publication US7368137B2, “Smilagenin and its use” (priority 1999, dated 2008).

Data set [1] concerns muscarinic receptors on cultured cardiac muscle cells. Description: Muscarinic receptor expression on cultured neonatal cardiac muscle cells (tritiated QNB binding). Type of data set: cell-based, Sprague Dawley rats. Conditions: NS = No significant effect. As for the experimental part:
3. Cultured cardiac muscle cells obtained from neonatal Sprague Dawley rats. The cardiac muscle cells express muscarinic receptors, typically m2. The level of these receptors fails on prolonged culture and the effects of compounds of interest in preventing the fall in receptor numbers was investigated.
Cardiac muscle cells were isolated from the ventricular muscle of neonatal Sprague Dawley rats using standard techniques. Cells were cultured in vitro and muscarinic receptor numbers expressed on cell surfaces membrane fragments after homogenization of cells harvested at various time points were estimated using specific binding of tritiated QNB. […] The experiments were therefore designed to investigate the effects of the various compounds in inhibiting this decline in receptor numbers.

Data set [2] deals with m2 receptors on CHO cells. Description: Expression of m2 receptors on CHO cells transfected with DNA for the m2 receptor (tritiated QNB binding). Type of data set: cell-based. The conditions noted are these: for Effect on receptor expression - given as % increase compared to control (negative values in brackets): DMSO control, NS = No significant effect. As for the experimental part: 1. Chinese hamster ovary (CHO) cells transfected with the a DNA fragment coding for a muscarinic receptor. The cell line used-for the majority of the experiments was a cell line expressing the m2 receptor.
The-effects of various compounds on the expression of m2 receptors on CHO cells transfected with DNA for the m2 receptor were investigated. Receptor numbers were assayed using tritiated QNB binding and subtracting non-specific binding. Compounds were dissolved in DMSO and DMSO was used as a control. Compounds were tested at a range of final concentrations. Compounds were also tested in the presence and absence of tamoxifen to try to distinguish an oestrogen receptor mediated mechanism. The results are summarized in the Table 2 below, where the compound used in the invention appears in bold, and data on other sapogenins is given for comparative purposes: […]

The test system of the next data set is aged Sprague-Dawley rats. The experiment in a line: Cognitive function in the Y-maze test in aged rats. Type of data set: in vivo. Conditions: 18 mg/kg/day in chow, 3 months intake; rats aged 23 months; FIG. 4. The method, then: Methods: Cognitive function in the Y-maze test
Sprague-Dawley rats aged 23 months (i.e. aged) were divided into aged-control or aged+smilagenin treatment group. Rats aged 3 to 4 months acted as young controls. The treatment group received 18 mg/kg/day of smilagenin in chow. Chow without smilagenin was given to each rat after the chow containing smilagenin had been consumed. Three months later the animals were tested in the Y-maze as follows; an equilateral Y-shaped maze was used composed of three 45 cm arms with copper rods in the floor at the end of each arm which conduct electricity and which were 0.2 cm in diameter, 14 cm in length and with a 1 cm gap between them. There were 15 W signal lights at each end. A safe region was indicated by a light signal in an arm where there was no electricity. If a rat moved to a safe region, a correct reaction was recorded. If it moved to an arm where there was no light, an error reaction was recorded. Following the response, an electric shock was again given after a 5 seconds interval. Twenty trials in total were conducted and the correct reaction rate was obtained: number of correct reactions/(20)/mean response time. Seven such training sessions were completed over seven days. Memory tests were then repeated 15 and 30 days later (=4 months) using the same techniques as just described.

Data set [3] has as its system recombinant human muscarinic receptors in CHO cells. Description: Muscarinic receptor density in CHO cells expressing recombinant human muscarinic receptors ([3H]-QNB). Type of data set: cell-based. Conditions: smilagenin at 1 and 10 μM; FIG. 2. The method, then:
In a CHO cell line expressing recombinant human muscarinic receptors in vitro, the number of muscarinic receptors tends to decline with time. Smilagenin (1-10 μM) incubated for 72 hours increases muscarinic receptor density.
Effect of smilagenin on muscarinic receptor density in CHO cells expressing recombinant human muscarinic receptors.
Chinese hamster ovary (CHO) cells expressing high levels of receptor (˜2.2 pmoles receptor/mg protein) were cultured in flasks (150 ml) for 24 hours before the start of the experiment. Vehicle (DMSO) and smilagenin (at 1 and 10 μM) were added to the medium for 48 h. The culture medium was discarded, the cells scraped off and resuspended in Hanks solution, centrifuged and m-receptor levels determined by incubating with [^3H]-QNB for 30 min followed by liquid scintillation counting. Protein levels were determined by a micro Lowry method.

For another data set, the target named is T1, Progesterone receptor (Homo sapiens, UniProt P06401).
T1 sequence (P06401 1-933): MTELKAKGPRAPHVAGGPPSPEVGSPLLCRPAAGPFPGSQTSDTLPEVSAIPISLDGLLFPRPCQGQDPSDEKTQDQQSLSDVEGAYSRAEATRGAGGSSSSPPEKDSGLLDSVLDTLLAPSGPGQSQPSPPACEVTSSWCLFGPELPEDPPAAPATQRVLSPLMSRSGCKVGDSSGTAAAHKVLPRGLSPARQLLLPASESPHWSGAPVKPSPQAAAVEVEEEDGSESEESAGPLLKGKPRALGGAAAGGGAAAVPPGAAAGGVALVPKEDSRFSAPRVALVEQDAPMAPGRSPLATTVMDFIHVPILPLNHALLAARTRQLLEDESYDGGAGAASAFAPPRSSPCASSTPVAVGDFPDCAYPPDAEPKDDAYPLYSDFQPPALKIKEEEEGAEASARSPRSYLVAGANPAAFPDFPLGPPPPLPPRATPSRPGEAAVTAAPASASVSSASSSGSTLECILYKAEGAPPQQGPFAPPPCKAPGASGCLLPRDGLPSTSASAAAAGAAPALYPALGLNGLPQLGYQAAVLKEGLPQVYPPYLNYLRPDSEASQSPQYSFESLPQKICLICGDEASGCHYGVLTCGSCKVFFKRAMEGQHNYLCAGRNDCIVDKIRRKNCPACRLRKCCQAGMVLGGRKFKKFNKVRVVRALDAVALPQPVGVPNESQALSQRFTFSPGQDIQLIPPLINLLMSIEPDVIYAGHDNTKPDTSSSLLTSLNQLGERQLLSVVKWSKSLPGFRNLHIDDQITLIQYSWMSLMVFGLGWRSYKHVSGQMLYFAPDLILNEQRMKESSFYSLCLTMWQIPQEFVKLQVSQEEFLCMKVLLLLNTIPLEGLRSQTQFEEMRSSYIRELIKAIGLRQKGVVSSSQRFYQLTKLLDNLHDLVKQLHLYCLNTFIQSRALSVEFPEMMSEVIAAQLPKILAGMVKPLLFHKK
The experiment in a line: Activity at steroid receptors: progesterone. The source says:
(§1) In identifying compounds that would have use in the treatment of SDAT and other diseases characterized by reductions in receptor numbers or synaptic transmission, the inventors have given consideration to the need to identify compounds that would-have the desired effect but would be devoid of any oestrogenic effects, as these would be unacceptable, particularly in male patients. A number of the compounds claimed to have activity in patent application DE 4303214A1 have marked oestrogenic activity and are therefore unacceptable.

The target in another data set is T2, Testosterone receptor (Homo sapiens, UniProt P10275).
T2 sequence (P10275 1-920): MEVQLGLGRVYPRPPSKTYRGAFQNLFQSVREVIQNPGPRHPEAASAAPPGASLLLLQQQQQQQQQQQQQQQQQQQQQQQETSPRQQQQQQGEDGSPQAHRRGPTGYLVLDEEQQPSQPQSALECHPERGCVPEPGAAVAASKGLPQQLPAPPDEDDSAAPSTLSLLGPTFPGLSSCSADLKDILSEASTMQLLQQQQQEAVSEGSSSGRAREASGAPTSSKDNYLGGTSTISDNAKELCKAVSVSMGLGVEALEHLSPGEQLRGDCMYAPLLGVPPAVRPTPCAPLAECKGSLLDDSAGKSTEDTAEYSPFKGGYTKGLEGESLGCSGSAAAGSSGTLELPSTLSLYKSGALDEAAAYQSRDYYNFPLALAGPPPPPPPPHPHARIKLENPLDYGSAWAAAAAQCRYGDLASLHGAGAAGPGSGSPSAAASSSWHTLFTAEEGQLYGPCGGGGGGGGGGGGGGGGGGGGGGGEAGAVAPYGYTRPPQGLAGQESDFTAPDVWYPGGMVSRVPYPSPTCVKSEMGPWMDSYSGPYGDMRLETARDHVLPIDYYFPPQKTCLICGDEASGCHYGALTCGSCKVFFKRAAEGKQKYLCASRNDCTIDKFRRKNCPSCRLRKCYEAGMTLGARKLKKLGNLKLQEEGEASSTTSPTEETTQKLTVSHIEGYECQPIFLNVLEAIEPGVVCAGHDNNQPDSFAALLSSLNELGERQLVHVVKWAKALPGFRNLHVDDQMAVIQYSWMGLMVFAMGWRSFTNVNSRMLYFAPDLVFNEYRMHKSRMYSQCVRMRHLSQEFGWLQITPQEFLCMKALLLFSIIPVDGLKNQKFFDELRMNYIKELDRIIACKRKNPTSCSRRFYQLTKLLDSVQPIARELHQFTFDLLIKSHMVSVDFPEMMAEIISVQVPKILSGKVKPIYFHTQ
Description: Activity at steroid receptors: testosterone.
From the text: as §1

The subject of data set [4] is muscarinic receptors in PC12 cells. Description: Muscarinic receptor number in PC12 cells incubated with β-amyloid (radio-labeled ligand binding). Type of data set: cell-based. As for the experimental part: Other in vitro assays have been employed to establish the effects of smilagenin. In particular various neuroblastoma cell lines including SKN-SN and SH-SY5Y cells as well as phaechromoacytoma cell lines have been cultured in vitro in the presence of β-amyloid fragments or serum depletion. […] These techniques included Trypan blue exclusion, chemiluminescence and release of lactate dehydrogenase. Of most interest was the observation that incubation of cells, in particular PC12 cells, with β-amyloid reduced the number of muscarinic receptors measured using radio-labeled ligand binding techniques.

The subject of a further data set is oestrogen receptor. Description: Oestrogenic activity.
From the text: as §1

Data set [5] relates to muscarinic (M) receptor in the brain. The experiment in a line: Single point analysis of brain M receptor density in aged rats. Type of data set: in vivo, Sprague-Dawley rats. The conditions noted are these: 18 mg/kg/day in chow over 3 months; 23-month-old rats; FIG. 3. The method, then: Methods: Single point analysis of brain M receptor density.
Sprague-Dawley rats, 23-month-old, (i.e. aged) were divided into 2 groups, aged-control and aged+smilagenin. Smilagenin (18 mg/kg/day) was mixed in the chow over the 3 month period; Male 4-6 month old rats acted as young controls. At the end of the 3-month treatment period, pairs of treated and control animals were sacrificed by cervical dislocation and the intact brain removed. Single point analysis of brain M receptor density was obtained.

For a further data set, the target named is T3, Glucocorticoid receptor (Homo sapiens, UniProt P04150).
T3 sequence (P04150 1-777): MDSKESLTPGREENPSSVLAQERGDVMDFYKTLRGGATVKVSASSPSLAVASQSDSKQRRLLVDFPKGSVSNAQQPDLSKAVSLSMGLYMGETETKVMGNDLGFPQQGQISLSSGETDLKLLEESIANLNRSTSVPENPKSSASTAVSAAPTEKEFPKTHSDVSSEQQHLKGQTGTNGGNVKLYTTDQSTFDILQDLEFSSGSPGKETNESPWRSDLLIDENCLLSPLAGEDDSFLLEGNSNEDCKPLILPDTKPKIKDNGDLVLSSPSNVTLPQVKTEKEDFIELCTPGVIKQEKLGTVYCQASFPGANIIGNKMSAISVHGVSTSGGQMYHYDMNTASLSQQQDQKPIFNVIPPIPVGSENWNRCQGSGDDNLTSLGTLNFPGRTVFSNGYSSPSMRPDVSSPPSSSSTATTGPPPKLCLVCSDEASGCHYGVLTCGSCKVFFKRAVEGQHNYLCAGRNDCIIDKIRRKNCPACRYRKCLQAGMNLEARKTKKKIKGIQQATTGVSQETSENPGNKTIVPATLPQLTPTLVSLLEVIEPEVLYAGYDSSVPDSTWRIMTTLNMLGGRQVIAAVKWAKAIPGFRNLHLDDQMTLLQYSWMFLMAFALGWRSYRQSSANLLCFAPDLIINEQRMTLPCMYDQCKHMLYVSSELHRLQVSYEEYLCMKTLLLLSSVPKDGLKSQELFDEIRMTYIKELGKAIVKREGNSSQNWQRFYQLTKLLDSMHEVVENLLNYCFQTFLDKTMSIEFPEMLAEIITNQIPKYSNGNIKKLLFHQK
Description: Activity at steroid receptors: glucocorticoid.
From the text: as §1

Where [6] appears, read: molar concentration of compound 10^−5.

m2 receptors on CHO cells, sequence (P08172 whole entry, the tested form may be a part): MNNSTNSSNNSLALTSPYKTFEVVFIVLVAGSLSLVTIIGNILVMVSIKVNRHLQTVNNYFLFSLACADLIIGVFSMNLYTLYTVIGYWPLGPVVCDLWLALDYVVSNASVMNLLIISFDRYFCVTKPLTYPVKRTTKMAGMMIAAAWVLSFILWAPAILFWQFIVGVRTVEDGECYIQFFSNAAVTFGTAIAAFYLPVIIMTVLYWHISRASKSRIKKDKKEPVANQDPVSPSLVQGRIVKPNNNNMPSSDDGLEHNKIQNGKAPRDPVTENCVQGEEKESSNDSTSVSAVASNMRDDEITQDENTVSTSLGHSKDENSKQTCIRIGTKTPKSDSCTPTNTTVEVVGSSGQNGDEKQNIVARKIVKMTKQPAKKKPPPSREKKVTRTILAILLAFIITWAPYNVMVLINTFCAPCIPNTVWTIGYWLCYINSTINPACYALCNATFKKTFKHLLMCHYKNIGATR
muscarinic receptors on cultured cardiac muscle cells, sequence (P10980 whole entry): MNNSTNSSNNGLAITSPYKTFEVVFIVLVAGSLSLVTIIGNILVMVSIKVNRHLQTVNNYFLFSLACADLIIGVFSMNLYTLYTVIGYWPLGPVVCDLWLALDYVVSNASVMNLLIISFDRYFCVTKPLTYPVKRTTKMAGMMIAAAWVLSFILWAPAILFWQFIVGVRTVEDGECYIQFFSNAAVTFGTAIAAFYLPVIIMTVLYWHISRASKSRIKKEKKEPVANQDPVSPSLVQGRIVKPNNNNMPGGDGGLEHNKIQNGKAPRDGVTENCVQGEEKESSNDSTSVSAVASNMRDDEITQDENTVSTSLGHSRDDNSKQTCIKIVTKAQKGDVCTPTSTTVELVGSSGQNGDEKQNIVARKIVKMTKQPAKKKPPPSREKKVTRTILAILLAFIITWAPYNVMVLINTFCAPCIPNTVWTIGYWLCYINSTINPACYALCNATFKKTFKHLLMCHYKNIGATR

On to Astragaloside, for which the “Concentration of compound causing a significant increase in number of receptors expressed on neonatal cardiac muscle after 10 days in vitro culture” value in data set [1] is reported as 10^−5M.
Regarding `C[C@@H]1CC[C@@]2(OC1)O[C@H]1C[C@H]3[C@@H]4C[C@@H](O)[C@@]5(O)C[C@@H](O)CC[C@]5(C)[C@H]4CC[C@]3(C)[C@H]1[C@@H]2C` [Anzurogenin D, reference compound], the “Concentration of compound causing a significant increase in number of receptors expressed on neonatal cardiac muscle after 10 days in vitro culture” value in data set [1] was 10^−6M. Besides, in data set [2] (setting [6]), the “Effect on receptor expression - given as % increase compared to control (negative values in brackets)” value is listed as 22%.
Take smilagenin: in the data set with aged Sprague-Dawley rats, the “Cognitive function (learning and memory performance) in Y-maze” value was “reversed the decline in cognitive function”. Also, the “Effect on muscarinic receptor number/density over the culturing period” value in [3] is listed as “prevents the decrease in muscarinic receptor number in a concentration-dependent manner”. The “Activity at progesterone receptor” value on Progesterone receptor is reported as “no activity”. The “Activity at testosterone receptor” value at Testosterone receptor was “no activity”. Further, in data set [1], the “Concentration of compound causing a significant increase in number of receptors expressed on neonatal cardiac muscle after 10 days in vitro culture” value is reported as 10^−6M. For the same compound, in [4], the “Effect on β-amyloid-induced reduction in muscarinic receptor numbers” value is “ameliorated”. Moreover, the Oestrogenic activity entry in the data set on oestrogen receptor is “does not display oestrogenic activity”. Besides, the “Brain M receptor numbers compared to aged controls” value in data set [5] is “increased M receptor numbers”. The “Activity at glucocorticoid receptor” value at Glucocorticoid receptor is “no activity”. Further, the figures for the “Effect on receptor expression - given as % increase compared to control (negative values in brackets)” value in [2] (setting [6]) and in data set [2] (molar concentration of compound 10^−6) were 57% and 18%, respectively. For the same compound, the “Effect of tamoxifen on the increase in muscarinic receptor number on CHO cells” value in [2] (tested in the presence and absence of tamoxifen) is recorded as “not antagonized by tamoxifen”.
